Entries after “also recorded” stand apart in the source; their conditions may differ. Values belong to the compound of their own block, whether it stands above or below them.
Experiments:
estrogen receptor = assay: Screen for agonist or antagonist effects on steroid hormone receptor-mediated gene expression; type: cell-based; details: cell lines with endogenous genes or stably integrated reporter genes
Description: A screen for the agonist or antagonist effects of a set of commercially available flavonoids was done by assessing their ability to induce or inhibit steroid hormone receptor-mediated gene expression. Cell lines were used in which the activity of endogenous genes or stably integrated reporter genes provided a facile method to quantify the effect of the flavonoids. The compound library was tested for their effects on gene expression mediated by the estrogen receptor, androgen receptor, progesterone receptor, and glucocorticoid receptor. […] Compound 2 differs from compound 1 by the addition of a hydroxyl group at carbon 3 of the flavone scaffold. We reasoned that other substitutions at position 3 could have estrogenic activity. Two novel compounds were tested: compound 3 (6-hydroxy-2-(4-hydroxyphenyl)-3-methyl-4H-chromen-4-one) and compound 4 (3-fluoro-6-hydroxy-2-(4-hydroxyphenyl)-4H-chromen-4-one) of Table 1, which have a methyl or fluoro moiety, respectively, at position 3.

[1] = test system: Estrogen Response Element (ERE)-luciferase reporter gene; assay: Cell culture-reporter gene assay of estrogenic activity (T47D ERE-luciferase); type: cell-based; details: for EC50: Homo sapiens, T47D breast cancer cell line, ERE-luciferase, treated 20 hours, FIG. 4; for estrogenic activity (luciferase) in words: compared to estradiol 1 nM
Description: Estrogenic activity was compared to an optimal dose of estradiol (1 nM). Results from cell culture-reporter gene assay was performed in which a T47D breast cancer cell line with a stably integrated Estrogen Response Element (ERE)-luciferase reporter gene was treated for 20 hours with the indicated doses of test compounds (FIG. 4). Luciferase activity was compared to an optimal dose of estradiol (1 nM).

[2] = Level in systemic circulation after suppository regimen; type: in vivo; details: female, rat, other: intravaginal suppository, one day after a two-week, daily suppository administration regimen, read-out: level in the systemic circulation (undetectable, LOD)
Description: (§1) Compound 4 of Table 1 was tested in the ovariectomized rat, a model of GSM, (Yousefzadeh N, et al., Ovariectomized rat model of osteoporosis: a practical guide. EXCLI J. 2020 Jan. 10; 19:89-107. doi: 10.17179/excli2019-1990). Six rats were tested in each of five treatment groups: rats treated with low or high concentrations of control (vehicle only); rats treated with low (0.2 mg/suppository or high (1.0 mg/suppository levels of compound 4 (abbreviated as “3F” in these figures); and rats treated with estradiol 0.1 microgram/suppository. Suppositories were administered intravaginally daily for 14 days. There were two sets of vehicle controls, corresponding to the level of excipients used in the in the low and high compound 4 treatment conditions. The estradiol treatment condition had excipients equivalent to the high control and high compound 4 treatment conditions. The individuals performing the drug treatment of the animals, their gross evaluations, sacrifice and dissection were blinded to the treatment that each group received. […] J Steroid Biochem Mol Biol. 2008 March; 109(1-2):67-80 doi: 10.1016/j.jsbmb.2007.09.023). […] To determine the depth of the epithelium, high quality 100x images were taken of the two regions and thickness of the epithelium measured at 25 distinct sites at each level for each animal, then averaged. […] P values were determined by student's T-test. […]

ovariectomized rat [3] = assay: Depth of vaginal epithelium in ovariectomized rat model of GSM; type: in vivo
Description: Independent measurement from mid-vagina (sections 3-4) and vagina near the cervix (sections 6-7) are shown. Twenty-five separate measurements were performed on sections 3-4 and also on sections 6-7 for each animal. There were 6 animals per treatment group, therefore each bar represents the mean of 150 measurements with the vertical line indicating one standard deviation.
(§2) Compound 4 of Table 1 was tested in the ovariectomized rat, a model of GSM, (Yousefzadeh N, et al., Ovariectomized rat model of osteoporosis: a practical guide. EXCLI J. 2020 Jan. 10; 19:89-107. doi: 10.17179/excli2019-1990). […] To determine the depth of the epithelium, high quality 100x images were taken of the two regions and thickness of the epithelium measured at 25 distinct sites at each level for each animal, then averaged. […] P values were determined by student's T-test. […]

ovariectomized rat [4] = assay: Vaginal mucin 5B immunohistochemistry, semi-quantitative score, ovariectomized rat; type: in vivo; details: intravaginal suppository daily for 14 days
Description: as §2
To investigate compound 4-mediated production of mucins in more detail, we investigated the production and presence of mucin 5B in the rat vagina. […] A semi-quantitative scoring system for the mucin 5B immunohistochemistry was designed with values between 0 to 2 in increments of 0.5 for the quantity of mucin 5B and the depth of the epithelium positive for mucin 5B, and then assessed at the levels 1, 2&3, 4&5, and 6&7. The presence of mucin 5B in the vaginal lumen was also assessed, then all values were summed for each animal. […] P values were determined by student's T-tests.

ovariectomized rat [5] = assay: Behavior, appearance, weight and necropsy findings of treated rats; type: in vivo; details: intravaginal suppository daily for 14 days
Description: as §1

ovariectomized rat [6] = assay: Ki67 immunohistochemistry of vaginal sections, ovariectomized rat; type: in vivo; details: high compound 4, 1.0 mg/suppository daily for 14 days
Description: Compound 4 of Table 1 was tested in the ovariectomized rat, a model of GSM, (Yousefzadeh N, et al., Ovariectomized rat model of osteoporosis: a practical guide. EXCLI J. 2020 Jan. 10; 19:89-107. doi: 10.17179/excli2019-1990). Six rats were tested in each of five treatment groups: rats treated with low or high concentrations of control (vehicle only); rats treated with low (0.2 mg/suppository or high (1.0 mg/suppository levels of compound 4 (abbreviated as “3F” in these figures); and rats treated with estradiol 0.1 microgram/suppository. Suppositories were administered intravaginally daily for 14 days. There were two sets of vehicle controls, corresponding to the level of excipients used in the in the low and high compound 4 treatment conditions. The estradiol treatment condition had excipients equivalent to the high control and high compound 4 treatment conditions. […] To determine the depth of the epithelium, high quality 100x images were taken of the two regions and thickness of the epithelium measured at 25 distinct sites at each level for each animal, then averaged. […] P values were determined by student's T-test. […]
Ki-67 is a protein expressed in G1, S, G2, and M phase and has been established as a marker of cellular proliferation. […] Approximately 800 cells were assessed on each slide. […] P values were determined by student's T-test.

ovariectomized rat [7] = assay: Ki67 immunohistochemistry of uterine sections, ovariectomized rat; type: in vivo; details: estradiol 0.1 microgram/suppository daily for 14 days
Description: as §2
Ki67 IHC was performed on a uterine section from animals in the control, the high level of compound 4 (abbreviated as “3F” in these figures), and estradiol groups. […] Approximately 800 cells were assessed for each animal within a group, then averaged to obtain the group mean. […] P values were determined by student T-test.

ovariectomized rat [8] = assay: Thickness of uterine endometrium, myometrium and bladder urothelium, ovariectomized rat; type: in vivo; details: estradiol 0.1 microgram/suppository daily for 14 days
Description: as §2
To ascertain whether compound 4 has an effect on the epithelium of anatomically neighboring tissues, the thickness of the epithelium was assessed in the uterus (a known target tissue of physiological levels of estradiol) and bladder (not an estrogen target tissue). The rats from the five treatment groups in the ovariectomized rat model of GSM described in Example 2 were evaluated for the effects of compound 4 on growth of uterus and bladder. […] The endometrium, myometrium, and urothelium thickness of each animal (n=6) were measured in 20 locations and averaged. […] P values were determined by student T-test.

Structure (SMILES): O=c1cc(-c2ccc(O)cc2)oc2ccc(O)cc12 [compound 1, 6-hydroxy-2-(4-hydroxyphenyl)-4H-chromen-4-one]
estrogen agonist effect on estrogen receptor-mediated gene expression (estrogen receptor): estrogen agonist

Structure (SMILES): Cc1c(-c2ccc(O)cc2)oc2ccc(O)cc2c1=O [compound 3, 6-hydroxy-2-(4-hydroxyphenyl)-3-methyl-4H-chromen-4-one]
potency compared to compound 2 (fold less potent) ([1]; T47D ERE-luciferase, 20 hours): about 10 fold
estrogenic activity (luciferase) in words ([1]; T47D ERE-luciferase, 20 hours): at very high doses appears to have superagonist activity

Structure (SMILES): C[C@]12CC[C@@H]3c4ccc(O)cc4CC[C@H]3[C@@H]1CC[C@@H]2O [estradiol]
mean percent Ki67 positive uterine cells vs control (ovariectomized rat [7]): None of the pairs exhibited a significant difference
endometrium, myometrium, and urothelium thickness vs control (ovariectomized rat [8]): None of the pairs exhibited a significant difference

The next lines start with results.

EC50 [1]: 44 nM
Structure (SMILES): O=c1c(O)c(-c2ccc(O)cc2)oc2ccc(O)cc12 [compound 2, 3,6-dihydroxy-2-(4-hydroxyphenyl)-4H-chromen-4-one]
estrogen agonist effect on estrogen receptor-mediated gene expression (estrogen receptor): superior potency as an estrogen receptor agonist compared to compound 1

EC50 [1]: 24 nM
concentration at 1 day [2]: < 0.33 ng/mL
Structure (SMILES): O=c1c(F)c(-c2ccc(O)cc2)oc2ccc(O)cc12 [compound 4, 3-fluoro-6-hydroxy-2-(4-hydroxyphenyl)-4H-chromen-4-one]
estrogenic activity (luciferase) in words ([1]; T47D ERE-luciferase, 20 hours): robust estrogenic activity and superior potency compared to compound 2
effect on vaginal epithelium structure, in words (ovariectomized rat [3]; 0.2 and 1.0 mg/suppository intravaginally daily for 14 days): dose dependent; also recorded: can restore the structure of the degenerate vaginal epithelium to the same level as estradiol
mean epithelial depth, p value vs corresponding control (ovariectomized rat [3]; low compound 4, 0.2 mg/suppository intravaginally daily for 14 days, both regions, borderline significant): ≈ 0.05
vaginal production of mucins, in words (ovariectomized rat [4]): stimulates the vaginal production of mucins; also recorded: lower dose of compound 4 treatment results in somewhat higher mucin production than higher dose
effect on animal behavior, appearance, weight, necropsy findings (ovariectomized rat [5]): does not affect animal behavior, appearance, weight, or necropsy findings
percent Ki67 positive cells in vaginal basal and parabasal layers vs control (ovariectomized rat [6]): no statistical difference between the groups

Source: patent US20250163013A1, “TREATMENT OF GENITOURINARY SYNDROME OF MENOPAUSE” (THE REGENTS OF THE UNIVERSITY OF COLORADO, a body corporate, priority 2022, published 2025)
